Results on two molecules are retold here after US5916906A, “Compositions comprising nicotinylalanine and an inhibitor of glycine conjugation or vitamin B6” (priority 1997, dated 1999).

Series [1] is described as follows: Urinary N-methylnicotinamide in rats treated with nicotinylalanine (literature). It counts as in vivo. As to conditions: following nicotinylalanine injection, inferred from urinary N-methylnicotinamide. The source says:
As discussed above, these benefits of nicotinylalanine treatment are applicable to other diseases besides neurodegeneration. R. H. Decker, et al. (ibid) reported a 4-5 fold increase in N-methylnicotinamide levels in the urine of rats treated with nicotinylalanine. Since N-methylnicotinamide is a major urinary excretion product of nicotinamide in the rat, increases in the endogenous levels of nicotinamide following nicotinylalanine injection are at least 5 fold.

The test system of a further series is LP-BM5 Retrovirus. Kind of series: Ecotropic virus XC plaque assay on spleen cells of treated LP-BM5 infected mice. It counts as in vivo, C57BL/6 mice. As to conditions: for Virus titer, plaques per million spleen cells: four months after inoculation, mean ± standard deviation, NAL 400 mg/kg. The source says: FIG. 4A and 4B: Mean Number of Virus Particles as Determined from Plaques per Million Spleen Cells from Serially Sacrificed Mice at Monthly Intervals After Inoculation with LP-BM5 Retrovirus. […] Each ml of the virus pool contained 3.66 log PFU ecotropic virus as determined by XC Plaque Assay. Treatment in all groups began one day after virus inoculation, except for the NAL 400 Delay Group which began treatment two weeks after virus inoculation. Groups and treatments are as follows:
FIG. 4B: LP-BM5+PBS=as described above; NAL 400=virus positive, plus daily (M-F) i.p. injections of nicotinylalanine (400 mg/kg) only; NAL 400 delay=nicotinylalanine (400 mg/kg) only, injected i.p. daily (M-F) beginning two weeks after virus inoculation.
Ecotropic virus titers were determined using the XC plaque assay (Yetter R. A. et al., J. Exp. Med., 168, 623-635, 1988) and were performed on spleen cells cultured from all serially killed mice at the interim sacrifices as shown in Tables 2-A & 2-B). Spleens were weighed and cells were extruded with sterile media (RPMI 1640, with gentamycin and 10% fetal calf serum). Serial 10-fold dilutions were made and one ml of each dilution was overlayered onto a monolayer of SC-1 cells treated with 4 μg/ml polybrene. After 24 hours, the media was removed and washed and the SC-1 cells were fed with fresh media. When the monolayer was confluent, the plates were irradiated with UV light at 60 ergs/mm^2 /sec and overlayered with XC cells. When the XC cell layer was confluent, the plates were fixed with methanol and stained with Giemsa Stain. Plaques were counted on an Artek colony counter and confirmed by phase contrast microscopy. Values presented in FIG. 4A represent the mean of adjusted samples at three dilutions expressed as plaques per million spleen cells. Mean and standard deviations corresponding to each of the data points in FIGS. 4A and 4B are derived from three mice serially killed at interim sacrifice times.

For series [2] the following is noted: rats treated with nicotinylalanine (Decker); cited from earlier work.
In the next series the test system is LP-BM5 MuLV Retrovirus. Kind of series: MAIDS model: disease stage score, attainment of disease score 4 (Kaplan-Meier) and survival up to 28 weeks. Type of series: in vivo, C57BL/6 mice.
From the text: Each value represents the mean and one standard standard deviation for groups of surviving mice (at least 4 mice per group) at termination of the study, following 28 weeks post-inoculation by LP-BM5 virus.
(§1) Each group consisted of 8 mice, except for the virus-negative control group which consisted of 6 mice.
as §1
This study was designed to determine whether nicotinylalanine (NAL) alone or in combination with acetylsalicylic acid (ASA) will prevent or alter the course of murine retroviral-induced immunodeficiency disease, MAIDS, in C57BL/6 female mice. The LP-BM5 MuLV virus used for these studies was prepared from chronically infected SC-1 cells (ATCC Cat. No. CRL-1404), as described by Yetter R. A. et al., J. Exp. Med., 168, 623-635, 1988. […] The MAIDS model is well characterized and reproducible in the laboratory, as described by Mosier D. E. et al., J. Exp. Med. 161, 766-784, 1985.
Measures of disease progression followed the methods developed by Eiseman et al., 1991 (Ibid). Disease scores 0 through +4 are based upon body weight gain and palpable alterations in the size of lymph nodes and spleen. Severity of disease is scored as follows: 0.5, increased body weight and variably detected increase in size of any one lymph node or spleen; +1, clearly detectable increase in the size of a lymph node and spleen; +2, readily detectable (greater than 0.3 cm in diameter) increased size in more than one lymph node and, in particular, enlargement of subcervical, brachial or axillary nodes; +3, increased size of all palpable nodes and palpable splenomegaly (≥0.3 grams); +4, advanced disease with extensive splenomegaly (>1.0 grams) and lymphadenopathy.
Specific pathogen free, female C57BL/6 mice (5 weeks of age) were purchased from Charles River Breeding Laboratories. All mice were allowed one week to acclimate to housing facilities prior to randomization for study. Animals were marked for identification and placed in microisolator cages with identifying cards (5 mice/cage), where autoclaved food and water were provided ad libitum.
NAL and ASA were formulated under sterile conditions according to preformulation methods outlined in Remington's Pharmaceutical Sciences Handbook, 18th Edition, 1990, ibid). NAL and ASA were dissolved in sterile phosphate-buffered normal saline solution (i.e., vehicle; Biofluids Inc., Lot 413054), adjusted to between pH 7.2 to 7.4 with […], sterilized by filtration through 0.2 μm bottle-type filters, and dispersed into sterile glass vials, sealed and capped (Wheaton Inc.).
Except for Group 6 (which began treatment 2 weeks after virus inoculation),test drug injections began 1 day after virus infection and continued every day except weekends (i.e., 5 times per week).

Series [3] is described as follows: Toxicity observations and necropsy in LP-BM5 infected mice. It counts as in vivo, C57BL/6 mice. On the procedure:
Disease progression was monitored by measuring serum IgM levels by ELISA on all animals at monthly intervals during the course of disease. Three mice per group were randomly selected and sacrificed at monthly intervals (end of month one through four) of the study. Disease scores for each animal were recorded weekly based upon palpation of lymph nodes and spleen. Complete gross necropsies were performed on these euthanized animals and the ratio of recorded spleen to body weights was an additional indicator of diseases progression. […] Infection was quantified by ecotropic virus XC plaque assays of spleens removed from the interim sacrificed animals. The study was to be terminated when mice were either dead or disease scores were +4 in more than 50% of the vehicle-treated MAIDS controls (Group 1), which occurred at 19 weeks post-inoculation of the virus pool. However, as the remaining mice in Group 1 were slow to progress towards more severe disease (FIG. 5) or death (FIG. 6), the study was extended until a termination date of 28 weeks post-inoculation.

Where [4] appears, read: NAL 400 mg/kg delayed by two weeks, FIG. 5.
Where [5] appears, read: within the first month of dosing.

In the case of `NC(CC(=O)c1cccnc1)C(=O)O` (racemic) [NAL, γ-(3-pyridyl)-γ-oxo-α-aminobutyrate], the “Increase in endogenous nicotinamide levels” value in series [1] is “at least 5 fold”. In addition, the “Virus titer, plaques per million spleen cells” value with LP-BM5 Retrovirus (ASA 20 mg/kg, AZT 1 mg/mL) is 3,410±4,606 plaques per million spleen cells; in the series with LP-BM5 Retrovirus (delayed two weeks), 796±463 plaques per million spleen cells. In addition, in series [2], the “Increase in N-methylnicotinamide levels in urine” value is on record as 4-5 fold. For the same molecule, the “Survival vs LP-BM5 virus-positive control (log-rank p)” value in the series on LP-BM5 MuLV Retrovirus (NAL 400 mg/kg after two week delay, FIG. 6) came out at 0.2492; in the series on LP-BM5 MuLV Retrovirus (treatment from day 1, FIG. 6), 0.9621. Also, the “Retardation of disease progression (score +4), Log-Rank p” value with LP-BM5 MuLV Retrovirus (setting [4]) turned out to be 0.0469. Further, the “Retardation of disease progression (score +4), Wilcoxon p” value in the series with LP-BM5 MuLV Retrovirus (setting [4]) was 0.0258. The “Survival vs vehicle-injected control (Wilcoxon p)” value in the series on LP-BM5 MuLV Retrovirus (NAL 400 mg/kg delayed by two weeks, FIG. 6) turned out to be 0.1756.
For `Cc1cn([C@H]2C[C@H](N=[N+]=[N-])[C@@H](CO)O2)c(=O)[nH]c1=O` [AZT, 3'azido-3'deoxythymidine, reference compound], the “Virus titer, plaques per million spleen cells” value in the series with LP-BM5 Retrovirus (ASA 20 mg/kg, AZT 1 mg/mL) is on record as 333±495 plaques per million spleen cells. Besides, the “Mice with detectable virus (plaques) in spleens” value with LP-BM5 Retrovirus (four months, AZT with or without 400 mg/kg NAL) was “two of the mice”. Also, in the series with LP-BM5 MuLV Retrovirus (Groups 4 and 7), the “Disease score of mice that died prior to termination” value came to 0.5. The “Survival vs LP-BM5 virus-positive control (log-rank p)” value in the series on LP-BM5 MuLV Retrovirus (treatment from day 1, FIG. 6) was 0.0308. Also, the “Deaths prior to termination of the study” value in series [3] (28-week study) was “one mouse”. Moreover, the “Necropsy finding in mice that died” value in series [3] (Groups 4 and 7) is “distended food filled small and large intestines”. Besides, in series [3] (setting [5]), the “Side-effect: melaninization” value is “melaninization of extremities, tail, and ears”; the “Side-effect: red-blood cell” value is listed as “red-blood cell toxicities”.
